Tests used:
Format in all cases: cell-based, human
Caco2 cells [1] = test: TCA cycle flux in Caco2 cells; settings: FLVCR1a-silenced vs scramble shRNA Caco2 cells
Source text: TCA cycle flux is reported in the centre of the figure and expressed as pmol CO2/h/mg protein. Data represent mean±SEM, n=3. For statistical analyses, an unpaired Student's t-test was used. **=p<0.01. Moreover, TCA cycle enzymes activities are reported in boxes and expressed as mU/mg mitochondrial proteins. Data represent mean±SEM, n=3. For statistical analyses, an unpaired Student's t-test was used; *=p<0.05, ***=p<0.001. […] Results are expressed as pmol CO2/h/mg protein. Data represent mean±SEM, n=3. For statistical analyses, an unpaired Student's t-test was used; *=p<0.05, **=p<0.01.
(A) TCA cycle flux in Caco2 cells expressing a scramble shRNA untreated or treated with 25 μM hemin for 2 hours. Moreover, the TCA cycle flux of untreated FLVCR1a-silenced Caco2 cells is reported for comparison. Results are expressed as pmol CO2/h/mg protein. Data represent mean±SEM, n=3. […] Results are expressed as pmol CO2/h/mg protein. […] Results are expressed as pmol CO2/h/mg protein. […]
The glucose flux through TCA cycle was measured by radiolabeling cells with 2 μCi/ml [6-^14C]-glucose (55 mCi/mmol; PerkinElmer, Waltham, MA, USA, catalog n° NEC045X). […] The amount of glucose transformed into CO2 through the TCA cycle was calculated as described (Riganti et al., 2004) and expressed as pmoles CO2/h/mg cell proteins.

Caco2 cells [2] = test: Proliferation of Caco2 cells (crystal violet staining, cell viability); settings: FLVCR1a-silenced vs scramble shRNA Caco2 cells
Source text: (A) Proliferation of Caco2 cells assessed by crystal violet staining at the indicated days; bar=1000 μm. […] Staining quantification is reported in the bar graph as percentage of crystal violet stained area. Data represent mean±SEM, n=4. For statistical analyses, a two-way analysis of variance was used, followed by the Bonferroni correction for multiple group comparisons; *=p<0.05, ***=p<0.001. (B) Caco2 cells viability the day of plating (day 0) and three days after plaiting (day 3). The measure is considered a readout of cell proliferation. […] Data represent mean±SEM, n=3 wells. For statistical analyses, a two-way analysis of variance was used, followed by the Bonferroni correction for multiple group comparisons; *=p<0.05, **=p<0.01. (C, D, E) Representative flow cytometric analyses of apoptosis in synchronized Caco2 (C), SKCO1 (D) and C80 (E) cells. […]
To assess cell viability, the CellTiter-Fluor Cell Viability Assay (Promega, Madison, WI USA, catalog n°G6080) was used. […] The detection of cell viability at different consecutive time points was regarded as a readout of cell proliferation.
For crystal violet staining, 1*10^4 Caco2 cells were seeded in 6-well plates. […] Stained area was assessed by analyses of four representative photos per day for each triplicate using Fiji open source software (Schindelin et al., 2012) (http://fiji.sc/ RRID:SCR_002285).

SKCO1 cells = test: Flow cytometric analysis of apoptosis in SKCO1 cells; settings: FLVCR1a-silenced vs scramble shRNA, synchronized SKCO1 cells
Source text: (A) Proliferation of Caco2 cells assessed by crystal violet staining at the indicated days; bar=1000 μm. […] Staining quantification is reported in the bar graph as percentage of crystal violet stained area. Data represent mean±SEM, n=4. For statistical analyses, a two-way analysis of variance was used, followed by the Bonferroni correction for multiple group comparisons; *=p<0.05, ***=p<0.001. (B) Caco2 cells viability the day of plating (day 0) and three days after plaiting (day 3). The measure is considered a readout of cell proliferation. […] Data represent mean±SEM, n=3 wells. For statistical analyses, a two-way analysis of variance was used, followed by the Bonferroni correction for multiple group comparisons; *=p<0.05, **=p<0.01. (C, D, E) Representative flow cytometric analyses of apoptosis in synchronized Caco2 (C), SKCO1 (D) and C80 (E) cells. […] Data represent mean±SEM, n=4 wells pooled from two independent experiments. For statistical analyses, an unpaired Student's t-test was used; *=p<0.05, **=p<0.01. […]
Stained cells were analyzed using a FACSCanto II cytofluorimeter and processed with BD FACSDIVA Software v8.1 (BD Biosciences, Milan, IT; http://www.bdbiosciences.com/instruments/software/facsdiva/index.jsp/ RRID:SCR_001456), acquiring at least 10,000 events per sample or 25,000 cells per sample for cell cycle experiments.

For “FLVCR1a shRNA: shRNA specifically down-regulating FLVCR1a without targeting FLVCR1b; pLKO.1 lentiviral clone TRCN0000059599, antisense SEQ ID No.: 2 (antisense TTGCTAATGATGCTGTACTGG; sense CCAGTACAGCATCATTAGCAA)”, the “total flux of the TCA cycle” value (Caco2 cells [1]) was “significantly up-regulated”, the cell proliferation (Caco2 cells [2]) was “proliferated more slowly” and the apoptosis (SKCO1 cells) was “increased apoptosis”.
